Each block holds one compound with its values, some of them ahead of it. *1 amine or outer side, *2 acyl side, *3 side chain or, on linkers, in order; H or OH if unused. Where a SMILES comes first, the peptide text is derived from it. [ ]: non-standard residue; d: D form. The star is where a group is joined. X1 = C[C@H](N[*:1])C(=O)C1CCC[C@H]1C(=O)[*:2]; Myristoyl = CCCCCCCCCCCCCC(=O)*
Tests used:
[1] = target: T1, Glycogen synthase kinase-3 beta (Homo sapiens, UniProt P49841); assay: Inhibition of GSK-3beta (unknown origin)
[2] = Inhibition of GSK-3beta (unknown origin) using GS-1 as substrate incubated for 20 mins
[3] = Inhibition of bovine heart PKA using stathmin as substrate incubated for 20 mins by liquid scintillation counter analysis; set-up: species or system Bos taurus
[4] = Inhibition of bovine brain CK2 using stathmin as substrate; set-up: species or system Bos taurus
[5] = target: Protein kinase C (PKC); assay: Inhibition of rat brain PKC using peptide PANKTPPKSPGEPAK as substrate incubated for 20 mins in presence of phosphatidyl serine
[6] = Inhibition of CDK-1/cyclin B (unknown origin) using histone H1 as substrate incubated for 20 mins by liquid scintillation counter analysis; set-up: species or system Homo sapiens
[7] = target: T1, Glycogen synthase kinase-3 beta; assay: Inhibition of GSK3-beta (unknown origin) by Kinase-Glo Max assay kit
[8] = target: T1, Glycogen synthase kinase-3 beta; assay: Inhibition of GSK-3beta (unknown origin) using biotin-labelled IRS-1 peptide as substrate incubated for 15 mins by ELISA based assay
[9] = target: T1, Glycogen synthase kinase-3 beta; assay: Inhibition of GSK-3beta (unknown origin) using peptide YRRAAVPPSPSLSRHSSPHQ(pS)EDEEE as substrate incubated for 5 to 60 mins by ADP-Glo kinase assay
[10] = test system: SH-SY5Y; assay: Neuroprotective activity against human SH-SY5Y cells pretreated for 1 hr followed by muMAbeta42 measured after 72 hrs; type: functional, cell-based
[11] = Inhibition of recombinant rabbit GSK-3beta using peptide YRRAAVPPSPSLSRHSSPHQ(pS)EDEEE as substrate incubated for 10 mins; set-up: species or system Oryctolagus cuniculus
[12] = target: T1, Glycogen synthase kinase-3 beta; assay: Inhibition of human recombinant GSK3-beta

T1 sequence (P49841 whole entry): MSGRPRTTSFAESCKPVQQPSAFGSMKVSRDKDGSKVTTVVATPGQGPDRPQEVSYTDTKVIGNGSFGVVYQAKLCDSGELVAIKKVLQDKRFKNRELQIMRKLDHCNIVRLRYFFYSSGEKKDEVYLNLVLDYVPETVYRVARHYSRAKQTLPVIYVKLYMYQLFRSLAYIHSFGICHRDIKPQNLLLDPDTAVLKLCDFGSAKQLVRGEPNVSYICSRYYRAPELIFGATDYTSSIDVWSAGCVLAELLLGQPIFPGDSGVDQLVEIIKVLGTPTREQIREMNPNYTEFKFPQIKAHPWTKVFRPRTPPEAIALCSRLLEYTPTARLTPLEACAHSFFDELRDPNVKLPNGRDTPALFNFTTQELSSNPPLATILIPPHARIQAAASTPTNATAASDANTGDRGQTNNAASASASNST

SMILES: Cc1ccc(C(=O)CCl)s1
IC50 [1]: > 100 µM

SMILES: CCn1sc(=O)n(CC)c1=O
IC50 [2]: 25 µM

SMILES: CCn1sc(=O)n(CC)c1=S
IC50 [2]: 20 µM

SMILES: O=C(CCl)c1cc(Cl)c(Cl)s1
IC50 [1]: 3 µM

SMILES: FC(F)(F)c1ccc(/C=N/Nc2nnc3n2N=C(c2ccc(Cl)cc2)CS3)cc1
IC50 [7]: 0.883 µM

SMILES: O=C(O)CCNc1cc(N2CCN(c3ccc(F)cc3)CC2)c2noc3c2c1C(=O)c1ccccc1-3
IC50 [8]: 8 µM

SMILES: O=C(O)c1ccc(N2CCN(c3cc(NCCP(=O)(O)O)c4c5c(onc35)-c3ccccc3C4=O)CC2)cc1
IC50 [8]: 1 µM

SMILES: COc1ccc(-c2cc(=O)c3c(OC)c([C@@H]4O[C@H](C(=O)N[C@@H](C)C(F)(F)F)[C@@H](O)[C@H](O)[C@H]4O)c(OC)cc3o2)cc1OC
IC50 [9]: 2 µM

SMILES: COc1ccc(-c2cc(=O)c3c(OC)c([C@@H]4O[C@H](C(=O)N[C@H](C)C(F)(F)F)[C@@H](O)[C@H](O)[C@H]4O)c(OC)cc3o2)cc1OC
IC50 [9]: 0.6 µM
EC50 [10]: 9 µM

SMILES: Nc1nccc(CNC(=O)c2ccc3c(c2)/C(=C/Cc2cccc(C(=O)O)c2)C(=O)N3)n1
IC50 [1]: 0.003 µM

SMILES: COc1ccc(-c2cc(=O)c3c(OC)c([C@@H]4O[C@H](C(=O)NC(C)C)[C@@H](O)[C@H](O)[C@H]4O)c(OC)cc3o2)cc1OC
IC50 [9]: 5 µM

SMILES: COc1ccc(-c2cc(=O)c3c(OC)c([C@@H]4O[C@H](C(=O)NCc5ccccc5)[C@@H](O)[C@H](O)[C@H]4O)c(OC)cc3o2)cc1OC
IC50 [9]: 16 µM

SMILES: C[S+]([O-])CCCCCCN=C=S (centres undefined)
IC50 [1]: 70 µM

SMILES: CCCCCCCCCCCCCC(=O)NCC(=O)N[C@@H](CCCCN)C(=O)N[C@@H](CCC(=O)O)C(=O)N[C@@H](C)C(=O)C1CCC[C@H]1C(=O)N1CCC[C@H]1C(=O)N[C@@H](C)C(=O)N1CCC[C@H]1C(=O)N1CCC[C@H]1C(=O)N[C@@H](C)C(=O)N[C@@H](CO)C(=O)N1CCC[C@H]1C(=O)N1CCC[C@H]1C(N)=O (some centres undefined) (Myristoyl-GKE[X1]PAPPASPP-NH2)
IC50 [11]: 40 µM

SMILES: COc1cc2c(c(OC)c1OC)-c1c(cc3c(c1OC)OCO3)C[C@@H](C)[C@@H](C)C2 [KADSURANIN]
IC50 [12]: 0.081 µM

SMILES: COc1cc2c(c(OC)c1OC)-c1c(cc3c(c1OC)OCO3)C[C@H](C)[C@H](C)C2 [WUWEIZISU B]
IC50 [12]: 0.073 µM

Continued, in another order:

IC50 [2]: 3 µM
SMILES: Cn1sc(=O)n(-c2cccc3ccccc23)c1=O

IC50 [4]: > 100 µM
IC50 [5]: > 100 µM
SMILES: Cn1sc(=O)n(Cc2ccccc2)c1=O
IC50 [3]: > 100 µM
IC50 [6]: > 100 µM

IC50 [1]: 0.0004 µM
SMILES: Cn1cc(C2=C(c3coc4ccccc34)C(=O)NC2=O)c2cc(F)ccc21

IC50 [8]: 1 µM
SMILES: O=C1c2ccccc2-c2onc3c(N4CCN(c5ccc(O)cc5)CC4)cc(NCCP(=O)(O)O)c1c23

IC50 [1]: 2 µM
SMILES: CN(c1ncnc2[nH]c3cc(Cl)ccc3c12)C1CCCN(C(=O)CC#N)C1 (centres undefined)

IC50 [1]: 0.072 µM
SMILES: CC(C)Oc1cccc(-c2ccc3cnc(C(=O)NCC4CCOCC4)n3c2)c1

IC50 [8]: 18 µM
SMILES: COc1ccc(N2CCN(c3cc(NCCC(=O)O)c4c5c(onc35)-c3ccccc3C4=O)CC2)cc1

IC50 [1]: 0.004 µM
SMILES: CC(C)Oc1cccc(-c2ccc3[nH]nc(C(=O)NCC4CCOCC4)c3c2)c1

EC50 [10]: 47 µM
SMILES: O=c1cc(-c2ccc(O)c(O)c2)oc2cc(O)c([C@@H]3O[C@H](CO)[C@@H](O)[C@H](O)[C@H]3O)c(O)c12 [ISOORIENTIN]
